In ChEMBL document CHEMBL1201862, “PubChem BioAssay data set” (2004):
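48-hour exposure; five concentrations; linearly interpolated endpoints. GI50: concentration for 50% inhibition of growth.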 Active and inactive are the calls of the source. Rule as the data show it: active = GI50 up to about 1.1 µM and inactive = higher.

Columns and labels:
Test in all cases: DTP human tumour cell line panel, 48 h
LOX IMVI = test system: LOX IMVI
SF-295 = test system: SF-295
HOP-62 = test system: HOP-62
ACHN = test system: ACHN
RPMI-8226 = test system: RPMI-8226
HCT-15 = test system: HCT-15
EKVX = test system: EKVX
Malme-3M = test system: Malme-3M
SNB-19 = test system: SNB-19
SK-MEL-2 = test system: SK-MEL-2
HCT-116 = test system: HCT-116
HL-60 = test system: HL-60
786-0 = test system: 786-0
U-251 = test system: U-251
SK-MEL-28 = test system: SK-MEL-28
SK-MEL-5 = test system: SK-MEL-5
SNB-75 = test system: SNB-75

| SMILES | GI50 (LOX IMVI) | GI50 (SF-295) | GI50 (HOP-62) | GI50 (ACHN) | GI50 (RPMI-8226) | GI50 (HCT-15) [µM] | GI50 (EKVX) | GI50 (Malme-3M) | GI50 (SNB-19) | GI50 (SK-MEL-2) | GI50 (HCT-116) | GI50 (HL-60) | GI50 (786-0) | GI50 (U-251) | GI50 (SK-MEL-28) | GI50 (SK-MEL-5) | GI50 (SNB-75) |
| --- | --- | --- | --- | --- | --- | --- | --- | --- | --- | --- | --- | --- | --- | --- | --- | --- | --- |
| COc1ccc(/C=C/C(=O)c2sc(NC(=S)NC(=O)c3ccc(Cl)cc3)nc2C)cc1OC | 32.2 µM (inactive) | 77.4 µM (inactive) | 47.5 µM (inactive) | 59.6 µM (inactive) | 24 µM (inactive) | 35 | 66.8 µM (inactive) | 37.2 µM (inactive) | 40.5 µM (inactive) | 47.1 µM (inactive) | 51.4 µM (inactive) | 30.3 µM (inactive) | 83.8 µM (inactive) | 34.6 µM (inactive) | 35.9 µM (inactive) |  |  |
| O=C(c1ccco1)N(C(=S)N1CCN(c2ccccn2)CC1)C1CCCCC1 | > 100 µM (inactive) | > 100 µM (inactive) | > 100 µM (inactive) | > 100 µM (inactive) | > 100 µM (inactive) | > 100 |  | > 100 µM (inactive) | > 100 µM (inactive) | > 100 µM (inactive) | > 100 µM (inactive) | > 100 µM (inactive) | > 100 µM (inactive) | > 100 µM (inactive) | > 100 µM (inactive) | > 100 µM (inactive) | > 100 µM (inactive) |
| CCCN(CCCCC(NC(C)=O)C(=O)NCc1ccccc1)C(=O)NCCCl (stereo not drawn) |  | > 100 µM (inactive) | > 100 µM (inactive) | > 100 µM (inactive) | > 100 µM (inactive) | > 100 | > 100 µM (inactive) | > 100 µM (inactive) | > 100 µM (inactive) |  | 59.2 µM (inactive) | > 100 µM (inactive) | > 100 µM (inactive) | > 100 µM (inactive) | > 100 µM (inactive) | > 100 µM (inactive) | > 100 µM (inactive) |
| COc1cc(CNc2nc3ccc(C(F)(F)F)cc3nc2-c2ccccc2)cc(OC)c1OC | 32.1 µM (inactive) | 34.7 µM (inactive) | 76.6 µM (inactive) |  | 6.11 µM (inactive) | 25.4 | 11.9 µM (inactive) | 29.6 µM (inactive) | 65.8 µM (inactive) | 20.9 µM (inactive) | 15.4 µM (inactive) | 5.55 µM (inactive) | 28.3 µM (inactive) | 44.5 µM (inactive) | 55.3 µM (inactive) | 18.7 µM (inactive) | 8.38 µM (inactive) |
| NC(=S)N/N=C1/C(=O)N(c2ccccc2)C(=O)C1C(=O)Nc1ccccc1 (stereo not drawn) |  | > 100 µM (inactive) | > 100 µM (inactive) | > 100 µM (inactive) |  | > 100 | > 100 µM (inactive) | > 100 µM (inactive) | > 100 µM (inactive) | > 100 µM (inactive) | > 100 µM (inactive) | > 100 µM (inactive) | > 100 µM (inactive) | > 100 µM (inactive) | > 100 µM (inactive) | > 100 µM (inactive) | > 100 µM (inactive) |
| COc1ccc(C(C#N)NNc2nc(C)cc(O)n2)cc1OC (stereo not drawn) | > 100 µM (inactive) | > 100 µM (inactive) | > 100 µM (inactive) | > 100 µM (inactive) | > 100 µM (inactive) | > 100 |  | > 100 µM (inactive) |  | > 100 µM (inactive) | > 100 µM (inactive) | > 100 µM (inactive) | > 100 µM (inactive) | > 100 µM (inactive) | > 100 µM (inactive) | > 100 µM (inactive) | 71.9 µM (inactive) |
| NC(=O)CN(CC(N)=O)C(N)=O | > 100 µM (inactive) | > 100 µM (inactive) |  | > 100 µM (inactive) | > 100 µM (inactive) | > 100 | > 100 µM (inactive) | > 100 µM (inactive) | > 100 µM (inactive) | > 100 µM (inactive) | > 100 µM (inactive) | > 100 µM (inactive) | > 100 µM (inactive) | > 100 µM (inactive) | > 100 µM (inactive) | > 100 µM (inactive) | 23 µM (inactive) |
| CC(=O)N1c2ccccc2C2=CC3C4C(=O)N(c5ccccc5)C(=O)C4C21C1C(=O)N(c2ccccc2)C(=O)C31 (stereo not drawn) | 43.9 µM (inactive) | 7.06 µM (inactive) |  | 31 µM (inactive) |  | 17.1 |  | 99.5 µM (inactive) | 16.4 µM (inactive) | 17.3 µM (inactive) | 3.83 µM (inactive) | 20.7 µM (inactive) | 37.2 µM (inactive) | 13.9 µM (inactive) | > 100 µM (inactive) |  | 31.1 µM (inactive) |
| O=[N+]([O-])CCc1cccc([N+](=O)[O-])c1 | > 100 µM (inactive) | > 100 µM (inactive) | > 100 µM (inactive) | > 100 µM (inactive) | > 100 µM (inactive) | > 100 | > 100 µM (inactive) | > 100 µM (inactive) | > 100 µM (inactive) | > 100 µM (inactive) | > 100 µM (inactive) | > 100 µM (inactive) | > 100 µM (inactive) | > 100 µM (inactive) | > 100 µM (inactive) | > 100 µM (inactive) | > 100 µM (inactive) |
| CC(=O)O[C@H]1CCC2[C@@H]3CCC4Nc5c(cnn5-c5ccccc5)C[C@]4(C)C3CC[C@@]21C (stereo partly drawn) | 12.8 µM (inactive) | 2.97 µM (inactive) | 18.3 µM (inactive) | 14.6 µM (inactive) | 4.2 µM (inactive) | 13.2 | 3.3 µM (inactive) | 11.8 µM (inactive) | 14.5 µM (inactive) | 17.1 µM (inactive) | 14.3 µM (inactive) | 7.64 µM (inactive) | 8.49 µM (inactive) | 17.9 µM (inactive) |  | 7.94 µM (inactive) | 4.01 µM (inactive) |
| COc1cc2cc3c4c(cc(OC)c(OC)c4c2cc1OC)CCN3C(=O)CCC(=O)NCCCN(C)C | 14.3 µM (inactive) | 37 µM (inactive) | 50.7 µM (inactive) | > 100 µM (inactive) | 38.5 µM (inactive) | > 100 | 72.1 µM (inactive) | 64.7 µM (inactive) | > 100 µM (inactive) | 20.1 µM (inactive) | 43.1 µM (inactive) | 21.7 µM (inactive) | 78 µM (inactive) | 41.9 µM (inactive) | 38.4 µM (inactive) | 14.7 µM (inactive) | 10.3 µM (inactive) |
| COc1ccc2c(c1)C(CCN)C(=O)N2 (stereo not drawn) | > 100 µM (inactive) | > 100 µM (inactive) | > 100 µM (inactive) | > 100 µM (inactive) | > 100 µM (inactive) | > 100 | > 100 µM (inactive) | > 100 µM (inactive) |  | > 100 µM (inactive) | > 100 µM (inactive) | > 100 µM (inactive) | > 100 µM (inactive) | > 100 µM (inactive) | > 100 µM (inactive) | > 100 µM (inactive) | > 100 µM (inactive) |
| CN1CC(=O)N2Cc3ccccc3-n3cccc3C2C1 (stereo not drawn) | > 100 µM (inactive) | > 100 µM (inactive) | > 100 µM (inactive) | > 100 µM (inactive) |  | > 100 | > 100 µM (inactive) | > 100 µM (inactive) | > 100 µM (inactive) | > 100 µM (inactive) | > 100 µM (inactive) |  | > 100 µM (inactive) | > 100 µM (inactive) | > 100 µM (inactive) | > 100 µM (inactive) | > 100 µM (inactive) |
| COc1ccc(C2=C(Cl)c3cc(OC)c(OC)cc3C2Cl)cc1OC (stereo not drawn) | 14.9 µM (inactive) | 18.3 µM (inactive) | 16.5 µM (inactive) | 16.6 µM (inactive) | 10.2 µM (inactive) | 18.2 | 22.2 µM (inactive) | 19.6 µM (inactive) | 15.9 µM (inactive) |  | 15.2 µM (inactive) | 13.7 µM (inactive) | 19.1 µM (inactive) | 15.4 µM (inactive) | 17 µM (inactive) | 14.6 µM (inactive) | 13.6 µM (inactive) |
| CN(Cc1ccccc1)c1nc(=[N+](C)C)ss1 | 36.8 µM (inactive) | > 100 µM (inactive) | > 100 µM (inactive) | > 100 µM (inactive) | 28.3 µM (inactive) | > 100 | > 100 µM (inactive) | > 100 µM (inactive) | 86.5 µM (inactive) | 25.9 µM (inactive) | 34.6 µM (inactive) | 28.4 µM (inactive) | > 100 µM (inactive) | 40.8 µM (inactive) | > 100 µM (inactive) | 58.6 µM (inactive) | > 100 µM (inactive) |
| C1CSCCSCCCS[C@@H]2CCCCC2SC1 (stereo partly drawn) | 24.2 µM (inactive) | > 100 µM (inactive) | > 100 µM (inactive) | > 100 µM (inactive) | 21 µM (inactive) | 15.4 | > 100 µM (inactive) | > 100 µM (inactive) | > 100 µM (inactive) | > 100 µM (inactive) | > 100 µM (inactive) | 44.3 µM (inactive) | > 100 µM (inactive) | > 100 µM (inactive) | > 100 µM (inactive) | > 100 µM (inactive) | > 100 µM (inactive) |
| CC(=O)OCC(OC(C)=O)C(OC(C)=O)C(OC(C)=O)C(=O)CNn1c(-c2ccccc2)nc2ccc(Br)cc2c1=O (stereo not drawn) | > 100 µM (inactive) | > 100 µM (inactive) | > 100 µM (inactive) | > 100 µM (inactive) | 64.9 µM (inactive) | > 100 | > 100 µM (inactive) | > 100 µM (inactive) | > 100 µM (inactive) | > 100 µM (inactive) | > 100 µM (inactive) | > 100 µM (inactive) | > 100 µM (inactive) | > 100 µM (inactive) | > 100 µM (inactive) | > 100 µM (inactive) | > 100 µM (inactive) |
| CCc1ccccc1-n1c2nc(=O)n(C)c(=O)c-2nc2ccccc21 |  | 11.5 µM (inactive) | 29.6 µM (inactive) | 3.92 µM (inactive) | 12.6 µM (inactive) | 10 | 12.1 µM (inactive) | 5.7 µM (inactive) | 10.8 µM (inactive) | 17.4 µM (inactive) | 12.6 µM (inactive) |  | 7.21 µM (inactive) | 16 µM (inactive) |  | 4.29 µM (inactive) | 14.2 µM (inactive) |
